Measured values as given in patent publication US4160097A, “1-(2-Phenylureylene)imidazoles” (Westwind Pharmaceuticals, Inc., priority 1977, dated 1979).
In brackets after ≈: the same amount, converted by molar mass.

Key:
[1] = tested on: carrageenan rat paw edema; assay: Rat Paw Edema Assay, Oral Dosing; assay type: in vivo; details: 4 h, four hours after drug, read-out: % Difference from Control; for change in vivo at 100 mg/kg: 100 mg/kg oral; for change in vivo at 400 mg/kg: 400 mg/kg oral
Experimental: The anti-inflammatory activity of representative compounds of this invention was determined by the rat paw edema assay both by local administration (Table XI below) and by oral dosing (Table XII below). For the oral dosing, the procedure of C. A. Winter, E. A. Risley and G. W. Nuss, Proc. Soc. Exp. Biol. Med. III, 544 (1962) was employed with measurement taken four hours after the drug was administered. The local administration tests were carried out similarly except the irritant (carrageenan) and the test compound were injected simultaneously at time zero.
Tables XI and XII report the anti-inflammatory activity of the compounds tested as % difference in the edema or swelling as compared with the control. These Tables also give the response in many instances of more than one dose level of the same drug.

[2] = tested on: humeral or antibody response; assay: hemolysin test in mice; assay type: in vivo; details: Mus musculus, sc, dose reducing antibody activity by 50% vs control, read-out: HL(ED50)
[3] = tested on: cell-mediated immune response to the antigen, Mycobacterium tuberculosis H37Ra; assay: delayed hypersensitivity test; assay type: in vivo, mouse; details: mice, dose reducing edema of cell-mediated immune response by 60% vs control; for ED60: Mus musculus, sc, read-out: D.H.S. (ED60)
Experimental: The immunosuppressant activities of the compounds of this invention were determined via the hemolysin test in mice and by the delayed hypersensitivity test. The hemolysin test used is that described in Methods in Immunology, edited by D. H. Campbell et al, W. A. Benjamin, New York 1963 pages 172-175, and measures humeral or antibody response. The delayed hypersensitivity test measures the effect of a test compound on the ability of a subject mouse to mount a cell-mediated immune response to the antigen, Mycobacterium tuberculosis H37Ra. The mouse is sensitized to the antigen by subcutaneous administration in the base of the tail. The development of the delayed hypersensitivity response may be measured at any time beginning six days after sensitization but is usually done on the ninth day as follows: The right hind paw is injected with purified protein derivative (tuberculin) while the left hind paw (control) receives physiological saline. Both paw volumes are measured after twenty-four hours and significant increase in the volume of the right hand paw is taken as a measure of an effective delayed hypersensitivity response. All compounds were administered by the subcutaneous route.
The D.H.S. (ED60) mg./kg. s.c. value appearing in column 3 is an expression of the effectiveness of the drug in reducing the edema that accompanies the cell-mediated immune response. It is a measure of the number of milligrams per kilogram of body weight of the drug administered subcutaneously which is required to reduce the edema of the cell-mediated immune response by 60% when compared to the control.

Trichophyton rubrum = assay: Antifungal activity, agar dilution method; assay type: cell-based, Trichophyton rubrum (ATCC No. 10218 and 14001); details: T. rubrum, read-out: Parts Per Million Inhibitions of T. rubrum
Experimental: (§1) various compounds of this invention display antifungal and anti-yeast activity.
(§2) In Table IX below are listed the antifungal activity of a number of compounds encompassed in the present invention. These were determined by the agar dilution method as described in Chapters 2 and 3 of Methods in Microbiology, Vol. 7B, edited by J. R. Norris and D. W. Ribbons, Academic Press, New York, 1972.

[4] = tested on: Trichophyton mentagrophytes; assay: Antifungal activity, agar dilution method; assay type: cell-based, Trichophyton mentagrophytes (ATCC No. 8757 and 9129); details: T. mentagrophytes, read-out: Parts Per Million Inhibitions of T. mentagrophytes
Experimental: as §1, §2

SMILES	change in vivo at 100 mg/kg [1] [%]	ED50 [2] [mg/kg]	ED60 [3] [mg/kg]	other results
CC(=O)Oc1ccccc1C(=O)O [Aspirin, reference compound]	-57			
CC(=O)Nc1ccccc1-n1ccnc1 [Compound 2]	-26			change in vivo at 400 mg/kg [1]: 43%
CCC(=O)Nc1ccccc1-n1ccnc1 [Compound 3]		50	50	D.H.S. (ED60) ([3]; s.c.): 50.0 mg/kg
CC(C)CC(=O)Nc1ccccc1-n1ccnc1 [Compound 14]	-52			
CCCCC(CC)C(=O)Nc1ccccc1-n1ccnc1 (centres unmarked) [Compound 15]	-24			change in vivo at 400 mg/kg [1]: -5%
O=C(Cc1ccccc1)Nc1ccccc1-n1ccnc1 [Compound 18]	-28			
O=C(Nc1ccccc1-n1ccnc1)C1CC1 [Compound 23]	-46			
O=C(Nc1ccccc1-n1ccnc1)C1CCC1 [Compound 24]	-17			change in vivo at 400 mg/kg [1]: -25%
O=C(Nc1ccccc1-n1ccnc1)C1CCCCC1 [Compound 25]	-30			
O=C(Nc1ccccc1-n1ccnc1)C(Cl)Cl [Compound 29]	-24			change in vivo at 400 mg/kg [1]: -25%
O=C(Nc1ccccc1-n1ccnc1)C(F)(F)F [Compound 30]	9			change in vivo at 400 mg/kg [1]: -33%
Cc1cccc(C(=O)Nc2ccccc2-n2ccnc2)c1 [Compound 36]	-7			change in vivo at 400 mg/kg [1]: -68%
Cc1ccc(C(=O)Nc2ccccc2-n2ccnc2)cc1 [Compound 37]	-35			
O=C(Nc1ccccc1-n1ccnc1)c1cccc(C(F)(F)F)c1 [Compound 38]	-41			
O=C(Nc1ccccc1-n1ccnc1)c1cccc([N+](=O)[O-])c1 [Compound 42]	-9			change in vivo at 400 mg/kg [1]: -25%
O=C(Nc1ccccc1-n1ccnc1)c1ccc(F)cc1 [Compound 45]	-33			
O=C(Nc1ccccc1-n1ccnc1)c1cccc(Cl)c1 [Compound 50]	-20			change in vivo at 400 mg/kg [1]: -33%
O=C(Nc1ccccc1-n1ccnc1)c1ccc(Cl)cc1Cl [Compound 52]	-26			
COc1ccc(C(=O)Nc2ccccc2-n2ccnc2)cc1 [Compound 55]	-26			
COc1cc(OC)cc(C(=O)Nc2ccccc2-n2ccnc2)c1 [Compound 57]	-35			
O=C(Nc1ccccc1-n1ccnc1)c1cccc(Br)c1 [Compound 59]				MIC (Trichophyton rubrum): 100 µg/mL (≈ 292 µM)

SMILES	change in vivo at 100 mg/kg [1] [%]	ED50 [2] [mg/kg]	ED60 [3] [mg/kg]	other results
CCCNC(=O)Nc1ccccc1-n1ccnc1 [Compound 66]		46	> 50	
O=C(Nc1ccccc1-n1ccnc1)NC1CCCCC1 [Compound 68]	-26			
Cc1ccc(NC(=O)Nc2ccccc2-n2ccnc2)cc1 [Compound 71]	-22			
O=C(Nc1cccc(F)c1)Nc1ccccc1-n1ccnc1 [Compound 73]	-22			
O=C(Nc1ccc(Cl)cc1)Nc1ccccc1-n1ccnc1 [Compound 75]	-30			
CCc1nc2ccccc2n2ccnc12 [Compound 111]	-43			
CCCCCCc1nc2ccccc2n2ccnc12 [Compound 115]	70			change in vivo at 400 mg/kg [1]: -25%
CCCCCCCCc1nc2ccccc2n2ccnc12 [Compound 117]	-7	> 50	46	change in vivo at 400 mg/kg [1]: -18%
CCCCCCCCCCCCCCCc1nc2ccccc2n2ccnc12 [Compound 119]				MIC (Trichophyton rubrum): 8 µg/mL (≈ 21.1 µM)
CCCCCCCCCCCCCCCCCc1nc2ccccc2n2ccnc12 [Compound 120]				MIC (Trichophyton rubrum): 1 µg/mL (≈ 2.45 µM)
CC(C)Cc1nc2ccccc2n2ccnc12 [Compound 121]	-61			
C=CCCCCCCCCc1nc2ccccc2n2ccnc12 [Compound 123]	0			MIC (Trichophyton rubrum): 2 µg/mL (≈ 6.51 µM); change in vivo at 400 mg/kg [1]: -50%
c1ccc2c(c1)nc(C1CCC1)c1nccn12 [Compound 128]	-39			MIC (Trichophyton rubrum): 16 µg/mL (≈ 71.7 µM)
FC(F)(F)c1cccc(-c2nc3ccccc3n3ccnc23)c1 [Compound 136]	-9	2.7	> 50	MIC [4]: 100 µg/mL (≈ 319 µM); change in vivo at 400 mg/kg [1]: -25%
COc1cc(OC)cc(-c2nc3ccccc3n3ccnc23)c1 [Compound 139]	-22	3	> 50	MIC [4]: 100 µg/mL (≈ 328 µM); change in vivo at 400 mg/kg [1]: -25%
Clc1cccc(-c2nc3ccccc3n3ccnc23)c1 [Compound 142]		0.2	4.2	MIC [4]: 100 µg/mL (≈ 357 µM)
Clc1ccc(-c2nc3ccccc3n3ccnc23)cc1Cl [Compound 143]		0.36	1.3	
Clc1ccc(-c2nc3ccccc3n3ccnc23)c(Cl)c1 [Compound 144]	-26			
Brc1ccc(-c2nc3ccccc3n3ccnc23)cc1 [Compound 146]		0.11	3.1	
Fc1ccc(-c2nc3ccccc3n3ccnc23)cc1 [Compound 147]	-39	0.027	1.7	
N#Cc1ccc(-c2nc3ccccc3n3ccnc23)cc1 [Compound 149]		0.16	8.8	

SMILES	change in vivo at 100 mg/kg [1] [%]	ED50 [2] [mg/kg]	ED60 [3] [mg/kg]	other results
O=[N+]([O-])c1cccc(-c2nc3ccccc3n3ccnc23)c1 [Compound 150]	-30	22	> 50	
Brc1cccc(-c2nc3ccccc3n3ccnc23)c1 [Compound 157]		0.39	12	
Fc1cccc(-c2nc3ccccc3n3ccnc23)c1 [Compound 158]		1	7.6	
Oc1ccc(-c2nc3ccccc3n3ccnc23)cc1 [Compound 162]		13		
c1ccc(Nc2nc3ccccc3n3ccnc23)cc1 [Compound 170]		6.6	> 50	
Cc1ccc(Nc2nc3ccccc3n3ccnc23)cc1 [Compound 171]		0.96	59	
Clc1ccc(Nc2nc3ccccc3n3ccnc23)cc1 [Compound 174]		0.61	8	
Clc1ccc(Nc2nc3ccccc3n3ccnc23)cc1Cl [Compound 175]		0.09	5.9	
Brc1ccccc1Nc1nc2ccccc2n2ccnc12 [Compound 177]		13	> 50	
Brc1cccc(Nc2nc3ccccc3n3ccnc23)c1 [Compound 178]		11	46	
Fc1ccccc1Nc1nc2ccccc2n2ccnc12 [Compound 180]		5.6		
Fc1cccc(Nc2nc3ccccc3n3ccnc23)c1 [Compound 181]		16		
Brc1ccc(Nc2nc3ccccc3n3ccnc23)cc1 [Compound 183]		0.39	15	
Ic1ccc(-c2nc3ccccc3n3ccnc23)cc1 [Compound 196]		0.42	45	
Cc1ccccc1Nc1nc2ccccc2n2ccnc12 [Compound 197]		1.6	37	
CC(C)c1ccc(Nc2nc3ccccc3n3ccnc23)cc1 [Compound 218]		1.5	25	
c1ccc(Oc2ccc(-c3nc4ccccc4n4ccnc34)cc2)cc1 [Compound 219]		2.5	> 32	
COc1ccc(Oc2ccc(-c3nc4ccccc4n4ccnc34)cc2)cc1 [Compound 220]		2.3	11	
CCCCSc1ccc(-c2nc3ccccc3n3ccnc23)cc1 [Compound 222]		1	> 32	
COc1ccc2c(c1)c(CC(=O)O)c(C)n2C(=O)c1ccc(Cl)cc1 [Indomethacin, reference compound]	-65			
CCCCC1C(=O)N(c2ccccc2)N(c2ccccc2)C1=O [phenylbutazone, reference compound]	-76			
